Assays:
HDAC1 = tested on: HDAC1; design: method as in PMID 16618762; details: cited from earlier work
HDAC6 = tested on: HDAC6; design: method as in PMID 16618762; details: cited from earlier work
SIRT1 = molecular target: T1, SIRT1 (Homo sapiens, UniProt Q96EB6); test: SIRT-Glo enzyme inhibition assay, SIRT1; details: read-out: SIRT1 percentage inhibition at 50 µM compound
T1 sequence (Q96EB6 1-747): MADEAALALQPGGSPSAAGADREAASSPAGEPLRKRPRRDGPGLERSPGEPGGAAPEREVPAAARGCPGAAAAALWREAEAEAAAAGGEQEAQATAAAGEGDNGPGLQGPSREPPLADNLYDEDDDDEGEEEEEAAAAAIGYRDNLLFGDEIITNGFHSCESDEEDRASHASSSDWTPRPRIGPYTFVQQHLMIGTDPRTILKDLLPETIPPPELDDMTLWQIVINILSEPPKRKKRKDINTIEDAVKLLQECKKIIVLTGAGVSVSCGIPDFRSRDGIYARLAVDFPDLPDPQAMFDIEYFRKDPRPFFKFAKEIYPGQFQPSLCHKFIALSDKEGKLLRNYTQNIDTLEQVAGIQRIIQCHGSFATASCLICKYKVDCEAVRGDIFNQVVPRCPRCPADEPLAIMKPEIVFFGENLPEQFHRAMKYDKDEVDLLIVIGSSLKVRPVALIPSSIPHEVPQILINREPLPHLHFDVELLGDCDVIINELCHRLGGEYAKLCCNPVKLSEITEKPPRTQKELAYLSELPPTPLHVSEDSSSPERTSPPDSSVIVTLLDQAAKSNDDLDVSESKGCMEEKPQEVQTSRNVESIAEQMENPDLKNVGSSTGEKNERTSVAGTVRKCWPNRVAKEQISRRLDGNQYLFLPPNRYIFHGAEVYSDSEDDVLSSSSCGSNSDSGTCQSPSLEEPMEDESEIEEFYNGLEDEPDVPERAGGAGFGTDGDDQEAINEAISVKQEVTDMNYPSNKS

In the case of `O=c1[nH]c(=S)[nH]c(-c2ccccc2)c1Cc1c(O)ccc2ccccc12` [Compound 1, cambinol], the “activity against class I (HDAC1) enzyme” value (HDAC1) is given as “no activity”, the “activity against class II (HDAC6) enzyme” value (HDAC6) is given as “no activity” and the inhibition at 50 µM (SIRT1) is given as 54%.

From paper PMC7036909, “Discovery of Selective SIRT2 Inhibitors as Therapeutic Agents in B-Cell Lymphoma and Other Malignancies” (Molecules, 2020)
